According to BindingDB's records for PubMed 8100350 (University of Pennsylvania, 1993):
Where a SMILES comes first, the peptide text is derived from it. Bridges are numbered along the chain shown (N, C = ends). [ ]: non-standard residue; d: D form. The star is where a group is joined. ξ: configuration not given here. Phe(4-NO2) = N[C@@H](Cc1ccc([N+](=O)[O-])cc1)C(=O)O; NH(1-naphthylmethyl) = c1ccc2c(CN*)cccc2c1; Phe(4-Cl) = N[C@@H](Cc1ccc(Cl)cc1)C(=O)O; d1Nal = N[C@H](Cc1cccc2ccccc12)C(=O)O; d2Nal = N[C@H](Cc1ccc2ccccc2c1)C(=O)O; dThr(3ξ) = CC(O)[C@@H](N)C(=O)O; ξF = NC(Cc1ccccc1)C(=O)O; Abu = CC[C@H](N)C(=O)O; X2 = CC(O)[C@H](CO)N*; Ahp = NCCCCCCC(=O)O; Bn = c1ccc(C*)cc1; ξC = NC(CS)C(=O)O

Key:
[1] = biological target: Somatostatin receptor type 3 (Mus musculus, UniProt P30935)
Somatostatin receptor type 3, sequence (P30935 whole entry): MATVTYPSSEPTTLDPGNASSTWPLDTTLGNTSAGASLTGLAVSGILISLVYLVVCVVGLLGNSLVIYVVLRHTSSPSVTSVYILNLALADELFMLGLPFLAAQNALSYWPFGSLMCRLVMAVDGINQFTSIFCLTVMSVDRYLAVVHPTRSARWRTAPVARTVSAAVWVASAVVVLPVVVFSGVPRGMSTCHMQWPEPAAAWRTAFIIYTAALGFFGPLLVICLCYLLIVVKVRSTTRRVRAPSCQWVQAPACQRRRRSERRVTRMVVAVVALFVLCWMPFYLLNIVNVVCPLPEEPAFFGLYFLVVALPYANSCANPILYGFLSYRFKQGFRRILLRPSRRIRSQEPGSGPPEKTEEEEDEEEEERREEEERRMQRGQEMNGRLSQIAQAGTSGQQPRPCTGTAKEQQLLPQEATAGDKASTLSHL

[2] = biological target: Somatostatin receptor type 2 (Mus musculus, UniProt P30875)
Somatostatin receptor type 2, sequence (P30875 whole entry): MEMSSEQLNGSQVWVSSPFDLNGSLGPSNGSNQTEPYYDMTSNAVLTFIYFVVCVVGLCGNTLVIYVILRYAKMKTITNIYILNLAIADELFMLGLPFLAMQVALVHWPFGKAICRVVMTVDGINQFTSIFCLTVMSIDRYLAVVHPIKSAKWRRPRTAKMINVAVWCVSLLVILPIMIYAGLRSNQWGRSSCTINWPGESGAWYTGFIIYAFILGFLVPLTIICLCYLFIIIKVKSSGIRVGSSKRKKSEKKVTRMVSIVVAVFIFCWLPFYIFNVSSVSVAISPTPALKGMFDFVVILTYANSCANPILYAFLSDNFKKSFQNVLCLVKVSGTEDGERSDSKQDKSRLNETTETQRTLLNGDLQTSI

[3] = biological target: Somatostatin receptor type 1 (Homo sapiens, UniProt P30872)
Somatostatin receptor type 1, sequence (P30872 whole entry): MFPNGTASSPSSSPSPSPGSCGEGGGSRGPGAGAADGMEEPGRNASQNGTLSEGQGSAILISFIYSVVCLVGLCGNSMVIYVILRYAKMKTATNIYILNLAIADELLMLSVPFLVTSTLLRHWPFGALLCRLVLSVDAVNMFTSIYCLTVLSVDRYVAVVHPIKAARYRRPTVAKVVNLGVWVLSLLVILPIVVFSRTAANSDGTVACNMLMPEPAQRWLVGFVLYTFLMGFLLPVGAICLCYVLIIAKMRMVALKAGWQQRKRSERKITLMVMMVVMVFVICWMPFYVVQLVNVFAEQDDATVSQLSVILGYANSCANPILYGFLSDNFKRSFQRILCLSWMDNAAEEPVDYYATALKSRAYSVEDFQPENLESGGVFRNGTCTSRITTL

Row | SMILES | Ki [1] [nM] | Ki [2] [nM] | Ki [3] [nM]
1 | C[C@@H](O)[C@@H]1NC(=O)[C@H](CCCCN)NC(=O)[C@@H](Cc2c[nH]c3ccccc23)NC(=O)[C@H](Cc2ccccc2)NC(=O)[C@@H]2CCCN2C(=O)[C@H](Cc2ccccc2)NC1=O (cyclo(PF[dW]KTF)) | 108 | 8.6 | 1000
2 | C[C@@H](O)[C@H](NC(=O)[C@H](Cc1ccccc1)NC(=O)[C@@H](NC(=O)[C@H](CCCCN)NC(=O)[C@@H](Cc1c[nH]c2ccccc12)NC(=O)[C@H](Cc1ccccc1)NC(=O)[C@H](Cc1ccccc1)NC(=O)[C@H](N)Cc1ccccc1)[C@@H](C)O)C(N)=O [CAS_133073-82-2] (H-[dF]FF[dW]KTFT-NH2) | 0.42 | 32 | 23
3 | CC(C)[C@H](NC(=O)[C@H](CCCCN)NC(=O)[C@@H](Cc1c[nH]c2ccccc12)NC(=O)[C@H](Cc1ccc(O)cc1)NC(=O)[C@H](Cc1ccc([N+](=O)[O-])cc1)NC(=O)[C@H](N)Cc1ccccc1)C(=O)N[C@@H](Cc1ccccc1)C(=O)N[C@H](C(N)=O)[C@@H](C)O [BIM 23066] (H-[dF][Phe(4-NO2)]Y[dW]KVFT-NH2) | 1.1 | 3.1 | 1000
4 | CC(O)[C@H](CO)NC(=O)[C@@H]1CSSCC(NC(=O)C(N)Cc2ccccc2)C(=O)N[C@H](Cc2ccccc2)C(=O)N[C@H](Cc2c[nH]c3ccccc23)C(=O)N[C@H](CCCCN)C(=O)N[C@H](C(C)O)C(=O)N1 (stereo partly specified) (H-[ξF][ξC][dF][dW][dK][dThr(3ξ)]C-X2; disulfide 2-7) | 3 | 2.4 | –
5 | CC(C)[C@H](NC(=O)[C@H](CCCCN)NC(=O)[C@@H](Cc1c[nH]c2ccccc12)NC(=O)[C@H](Cc1ccc(O)cc1)NC(=O)[C@H](Cc1ccc(Cl)cc1)NC(=O)[C@@H](N)Cc1ccccc1)C(=O)N[C@@H](Cc1ccccc1)C(=O)N[C@H](C)C(N)=O [BIM 23064] (H-F[Phe(4-Cl)]Y[dW]KVF[dA]-NH2) | 34 | 948 | 1000
6 | CC(C)[C@H](NC(=O)[C@H](CCCCN)NC(=O)[C@@H](Cc1c[nH]c2ccccc12)NC(=O)[C@H](Cc1ccc(O)cc1)NC(=O)[C@H](C)NC(=O)[C@H](N)Cc1ccccc1)C(=O)N[C@@H](C)C(=O)N[C@H](Cc1ccc2ccccc2c1)C(N)=O [D-Phe-AIa-Tyr-D-Trp-Lys-Val-Ala-D-Nal-NH2] (H-[dF]AY[dW]KVA[d2Nal]-NH2) | 65 | 60 | 146
7 | CC(C)[C@H](NC(=O)[C@H](CCCCN)NC(=O)[C@@H](Cc1c[nH]c2ccccc12)NC(=O)[C@H](Cc1ccc(O)cc1)NC(=O)[C@H](Cc1ccccc1)NC(=O)[C@H](N)Cc1ccccc1)C(=O)N[C@@H](Cc1ccccc1)C(=O)N[C@H](Cc1cccc2ccccc12)C(N)=O [BIM 23056] (H-[dF]FY[dW]KVF[d1Nal]-NH2) | 0.02 | > 10000 | 1000
8 | CC[C@H](NC(=O)[C@@H](N)Cc1ccc(Cl)cc1)C(=O)N[C@@H](Cc1ccc(O)cc1)C(=O)N[C@H](Cc1c[nH]c2ccccc12)C(=O)N[C@@H](CCCCN)C(=O)N[C@H](C(=O)N[C@@H](C)C(=O)N[C@H](Cc1ccccc1)C(N)=O)C(C)C [BIM 23067] (H-[Phe(4-Cl)][Abu]Y[dW]KVA[dF]-NH2) | 123 | 135 | –
9 | C[C@H](N)C(=O)NCC(=O)N[C@H]1CSSC[C@@H](C(=O)O)NC(=O)[C@H](CO)NC(=O)[C@H]([C@@H](C)O)NC(=O)[C@H](Cc2ccccc2)NC(=O)[C@H]([C@@H](C)O)NC(=O)[C@H](CCCCN)NC(=O)[C@@H](Cc2c[nH]c3ccccc23)NC(=O)[C@H](Cc2ccccc2)NC(=O)[C@H](Cc2ccccc2)NC(=O)[C@H](CC(N)=O)NC(=O)[C@H](CCCCN)NC1=O [SRIF-D-Trp8] | – | 0.005 | –

Now from value to molecule:

Row | Ki [1] [nM] | Ki [2] [nM] | Ki [3] [nM] | SMILES
10 | 20 | 4.8 | 382 | CC(O)C1NC(=O)C(CCCCN)NC(=O)C(Cc2c[nH]c3ccccc23)NC(=O)C(Cc2ccccc2)NC(=O)C(NC(=O)C(N)Cc2ccccc2)CSSCC(C(=O)NCc2cccc3ccccc23)NC1=O (stereo unspecified) [EC5-21] (H-FCFWKTC-{NH(1-naphthylmethyl)}; disulfide 2-7; configuration not given here)
11 | 65 | 0.002 | 1000 | CC1NC(=O)C(CCCCN)NC(=O)C(Cc2c[nH]c3ccccc23)NC(=O)C(Cc2ccc(O)cc2)NC(=O)C(NC(=O)C(N)Cc2ccccc2)CSSCC(C(=O)NCc2cccc3ccccc23)NC1=O (stereo unspecified) [BIM 23034] (H-FCYWKAC-{NH(1-naphthylmethyl)}; disulfide 2-7; configuration not given here)
12 | 214 | 1000 | 80 | NCCCC[C@@H]1NC(=O)[C@@H](Cc2c[nH]c3ccccc23)NC(=O)[C@H](Cc2ccccc2)NC(=O)CCCCCCNC(=O)[C@H](COCc2ccccc2)NC1=O [c[Aha-Phe-D-Trp-Lys-Ser(Bzl)]] (cyclo([Ahp]F[dW]KS(Bn)))
13 | 2.1 | 0.005 | – | C[C@@H](O)[C@@H]1NC(=O)[C@H](Cc2ccccc2)NC(=O)[C@H]([C@@H](C)O)NC(=O)[C@H](CCCCN)NC(=O)[C@@H](Cc2c[nH]c3ccccc23)NC(=O)[C@H](Cc2ccccc2)NC(=O)[C@H](Cc2ccc(Cl)cc2)NC(=O)[C@H](CC(N)=O)NC(=O)[C@H](CCCCN)NC(=O)[C@@H](N)CSSC[C@@H](C(=O)O)NC(=O)[C@H](CO)NC1=O [EC5-21] (H-CKN[Phe(4-Cl)]F[dW]KTFTSC-OH; disulfide 1-12)
14 | 112 | 0.002 | 1000 | NCCCCC1NC(=O)C(Cc2c[nH]c3ccccc23)NC(=O)C(Cc2ccc(O)cc2)NC(=O)C(NC(=O)C(N)Cc2ccccc2)CSSCC(C(=O)NCc2cccc3ccccc23)NC(=O)C(CO)NC1=O (stereo unspecified) [NC4-28B] (H-FCYWKSC-{NH(1-naphthylmethyl)}; disulfide 2-7; configuration not given here)
15 | 30 | 29 | 1000 | C[C@@H](O)[C@@H]1NC(=O)[C@H](CCCCN)NC(=O)[C@@H](Cc2c[nH]c3ccccc23)NC(=O)[C@H](Cc2c[nH]c3ccccc23)NC(=O)[C@H](Cc2ccccc2)NC(=O)CCCCCCNC(=O)[C@H](Cc2ccccc2)NC1=O [L-362855] (cyclo([Ahp]FW[dW]KTF))
16 | 4.7 | > 10000 | 419 | CC(C)[C@@H]1NC(=O)[C@H](CCCCN)NC(=O)[C@@H](Cc2c[nH]c3ccccc23)NC(=O)[C@H](Cc2ccc(O)cc2)NC(=O)[C@@H](C)N(C)C(=O)[C@H](Cc2ccccc2)NC1=O
17 | 7.1 | 0.008 | 1000 | C[C@@H](O)[C@H](NC(=O)[C@@H]1CSSC[C@H](NC(=O)[C@H](N)Cc2ccc3ccccc3c2)C(=O)N[C@@H](Cc2ccc(O)cc2)C(=O)N[C@H](Cc2c[nH]c3ccccc23)C(=O)N[C@@H](CCCCN)C(=O)N[C@@H]([C@@H](C)O)C(=O)N1)C(N)=O [D-Nal-c[Cys-Tyr-D-Trp-Lys-Thr-Cys]-Thr-NH2]
18 | 107 | 1000 | 141 | C[C@@H](OCc1ccccc1)[C@@H]1NC(=O)[C@H](CCCCN)NC(=O)[C@@H](Cc2c[nH]c3ccccc23)NC(=O)[C@H](Cc2ccccc2)NC(=O)CCCCCCNC1=O [c[Aha-Phe-D-Trp-Lys-Thr(Bzl)]] (cyclo([Ahp]F[dW]KT(Bn)))
19 | 12 | 0.18 | – | CC(C)[C@@H]1NC(=O)[C@H](CCCCN)NC(=O)[C@@H](Cc2c[nH]c3ccccc23)NC(=O)[C@H](Cc2ccc(O)cc2)NC(=O)[C@H](C)N(C)C(=O)[C@H](Cc2ccccc2)NC1=O [CAS_3086456]
